Results published in patent publication US20130184330A1, “COMPOSITIONS AND METHODS FOR INDUCING CANCER CELL DEATH” (UNIVERSITY OF MIAMI, priority 2010, published 2013).
Entries after “also recorded” stand apart in the source; their conditions may differ.

Columns and labels:
[1] = test system: PERK−/− MEFs; assay: Cell death analysis in PERK knock-out MEFs; assay type: cell-based, mouse
From the text: (§1) Cell types: Human tumor cell lines 1469 (pancreatic) and MDA-MB-435 (melanoma) were purchased from American Type Culture Collection (ATCC), and maintained in DMEM with 1 g/l of glucose (Mediatech). Mouse embryonic fibroblasts (MEF) that are PERK knock-out and its wild type pair were a kind gift from Dr. Mark Lehrman (University of Southwestern Texas, Dallas, Tex.). MEFs that have wild type eif2-α and eif2-α with its serine51 mutated to alanine were a kind gift from Dr. Glen Barber (University of Miami, Miami, Fla.). All MEFS were maintained in RPMI with 2 g/l of glucose (Invitrogen). All culture media were supplemented with 10% fetal bovine serum (FBS) (Invitrogen), penicillin/streptomycin (Invitrogen) and 0.1% Plasmocin (only for cell passage) (InvivoGen) unless otherwise specified. Cells were grown under 5% CO2 at 37° C.
(§2) Growth inhibition and Cytotoxicity assays: Cells were seeded onto 24-well plates and cultured for 18-22 h. After drug exposure for 48 hours, attached cells and their respective culture media were collected and centrifuged at 400 g for 5 min. The pellets were then resuspended in Hanks Balanced Salt Solution (HBSS) (Mediatech) and analyzed with Vi-Cell cell viability analyzer (Beckman Coulter) based on trypan blue exclusion. Results were shown as the percentages of dead cells out of total cells counted. Data were the averages of triplicate samples +SD from one representative experiment out of at least three independent analyses unless otherwise indicated.
(§3) siRNA transfection: Cells were seeded into 25-cm^2 flasks and cultured for 24 h to reach ˜60% confluence using antibiotics-free media. Then, cells were transfected with anti-Luc siRNA-1 (targeting luciiferase) or ON-TARGETplus SMARTpool siRNA against PERK or GCN2 using the DharmaFECT siRNA transfection reagent #2 (Dharmacon). Twenty-four hours after transfection, cells were collected and re-seeded onto 6-well or 24-well plates and drug-treated for immunoblotting or cytotoxicity analyses, respectively.

[2] = test system: eif2-α and GCN2 phosphorylation in PERK−/− MEFs; assay: Western blot of phosphorylated eif2-α and GCN2 in PERK knock-out MEFs; assay type: cell-based, mouse
From the text: as §1
(§4) Immunoblotting analysis: Cells were seeded onto six-well plates and cultured for 18-22 h to reach 40-70% confluence. Following drug exposure for the indicated times, cells were harvested and lysed with the lysis buffer (100 mM Tris-HCl at pH 7.4, 1% SDS, phosphatase inhibitor cocktail 2 and protease inhibitor cocktail from Sigma-Aldrich). Protein concentrations of each sample were determined using a Micro BCA Protein Assay Kit (Thermo Scientific) according to the manufacturer's directions, and equal amounts of proteins were loaded onto 4-15% Tris-HCl gradient gels (except 12% gels for siRNA experiments) (Bio-Rad). After SDS-PAGE, proteins were transferred onto a polyvinylidene fluoride (PVDF) membrane (Millipore), blocked with 5% milk and probed with corresponding primary antibodies overnight (except 1 h for β-actin). The membrane was washed and probed with secondary antibodies for 1 h. Membrane was then incubated with SuperSignal West Pico or Femto Chemiluminescent Substrate (Thermo Scientific) and signals were visualized on Blue Lite Autorad Films (ISCBioExpress). All primary antibodies were used at 1:1000 dilution except for Atg7 (1:300) and β-actin (1:10000), and the secondary antibodies were used at 1:10000. Representative blots from at least three independent experiments were shown unless otherwise indicated.

[3] = test system: MDA-MB-435 cells; assay: Growth inhibition assay, Vi-Cell trypan blue exclusion; assay type: cell-based, human; conditions: 48 hours, equivalent doses, i.e. 0.3 mM and 2 mM
From the text: as §1
as §2, with “Data were the averages of triplicate samples +SD from one representative experiment out of at least three independent analyses unless otherwise indicated.” left out

[4] = test system: AMPK and eif2-α phosphorylation, GRP78 and CHOP expression in MDA-MB-435 cells; assay: Western blot of ATP and ER stress/UPR markers; assay type: cell-based, human
From the text: as §1, §4, §3

[5] = test system: PERK+/+ MEFs; assay: Cell death analysis in wild type MEFs; assay type: cell-based, mouse; conditions: similar conditions as for PERK−/− cells
From the text: as §1
as §2, with “Data were the averages of triplicate samples +SD from one representative experiment out of at least three independent analyses unless otherwise indicated.” left out

[6] = test system: patients with various tumor types; conditions: in combination with taxotere; cited from earlier work
[7] = test system: MEF eif2a A/A; assay: Cell death analysis in MEFs with non-phosphorylatable eif2-α; assay type: cell-based, mouse; conditions: 48 hours
From the text: as §1
as §2, with “Data were the averages of triplicate samples +SD from one representative experiment out of at least three independent analyses unless otherwise indicated.” left out

## NC(=O)CC[C@H](N)C(=O)O [glutamine]
[1]; 8 mM glutamine, 2-DG 48 hours
  2-DG toxicity in PERK−/− cells in 8 mM vs 4 mM glutamine: increased toxicity
[2]; 2-DG treated PERK−/− cells, exogenous glutamine
  eif2-α phosphorylation with exogenous glutamine: reduces
[2]; glutamine increased to 8 mM
  2-DG induced GCN2 phosphorylation with exogenous glutamine: attenuated

## O=C[C@H](F)[C@@H](O)[C@H](O)[C@H](O)CO [2-FDG, 2-fluoro-deoxy-D-glucose]
[3]
  growth inhibitory activity compared with 2-DG: significantly less growth inhibitory activity than 2-DG
[1]; doses that do not induce ER stress but block glycolysis, 48 hours
  toxicity of 2-FDG in PERK−/− cells: very little or no toxicity
[4]; equivalent doses, 0.3 mM and 2 mM
  induction of UPR marker GRP 78 compared with 2-DG: less induction

## O=CC[C@@H](O)[C@H](O)[C@H](O)CO [2-DG, 2-Deoxy-D-glucose]
[5]
  2-DG toxicity in PERK+/+ cells with siRNA against GCN2 or increased glutamine: not increased
[1]; 48 hours
  toxicity of 2-DG in PERK−/− vs PERK+/+ MEFs: more toxic; also recorded: more sensitive
[6]
  tolerability in phase I trial: well-tolerated
[7]
  sensitivity of eif2-α mutant MEFs to toxic effects of 2-DG vs parental: more sensitive
[4]; 2-DG 0.2 mM and 2 mM, 24 hours
  eIF2a phosphorylation: phosphorylated (inhibited)
[4]; 2-DG 0.2 mM, 24 hours
  AMPK phosphorylation: phosphorylated
[4]; 2-DG, aerobic conditions
  levels of UPR chaperone GRP 78: increased levels
[2]; 2-DG 2 and 8 mM, 4 mM glutamine, 24 hours
  GCN2 phosphorylation induced by 2-DG: induces phosphorylation of GCN2
[2]; as a function of time of treatment with 2-DG
  phosphorylated eif2-α levels in PERK−/− vs PERK+/+ cells: significantly lower levels
